# Measurements taken from US11807835B2, “Detergent compositions containing a stabilized enzyme by phosphonates” (ECOLAB USA INC., priority 2016, dated 2023).
# How the values were obtained:
# lipase = test: Lipase activity retention in detergent use solution (4000 ppm, 5 GPG water; p-nitrophenyl valerate, TRIS buffer pH 8.0); type: biochemical; details: base formula
# Procedure, shortened: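 Lipase stability was measured in a detergent use solution under conditions mimicking presoak or manual warewash, with stirring in a water bath. Aliquots were taken over time and flash-frozen. Thawed samples were diluted in TRIS buffer at pH 8.0 and assayed with p-nitrophenyl valerate as substrate on a plate reader. Activity is reported as % retained relative to the time=0 sample.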
# [1] = tested on: enzyme (protease, amylase, lipase); test: Overall effects of phosphonates on enzyme activity (Table 3); type: biochemical; details: overall effect of the phosphonate on enzyme activity in the detergent use solution
# Procedure, shortened: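 Protease, amylase and lipase activity in detergent use solutions with varied phosphonate levels, 4000 ppm in 5 GPG water at 120° F., sampled up to 4 h and frozen at −80° C. before assay. Activity given as % retention relative to t=0 (100%).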
substance,measurement,setting,value
Polyamino Polyether Methylene Phosphonic Acid [PAPEMP],Relative Lipase Enzyme Activity,"lipase; phosphonate 0.3 wt-%, use solution at 120° F., time 0 min",49.99%
same,Relative Lipase Enzyme Activity,"lipase; phosphonate 0.3 wt-%, use solution at 120° F., time 5 min",100.00%
same,Relative Lipase Enzyme Activity,"lipase; phosphonate 0.3 wt-%, use solution at 120° F., time 10 min",92.85%
same,Relative Lipase Enzyme Activity,"lipase; phosphonate 0.3 wt-%, use solution at 120° F., time 20 min",77.81%
same,Relative Lipase Enzyme Activity,"lipase; phosphonate 0.3 wt-%, use solution at 120° F., time 40 min",54.24%
same,Relative Lipase Enzyme Activity,"lipase; phosphonate 0.3 wt-%, use solution at 120° F., time 60 min",51.08%
same,Relative Lipase Enzyme Activity,"lipase; phosphonate 0.3 wt-%, use solution at 120° F., time 90 min",45.80%
same,Relative Lipase Enzyme Activity,"lipase; phosphonate 0.3 wt-%, use solution at 120° F., time 120 min",36.29%
same,Relative Lipase Enzyme Activity,"lipase; phosphonate 0.3 wt-%, use solution at 120° F., time 150 min",33.14%
same,Relative Lipase Enzyme Activity,"lipase; phosphonate 0.3 wt-%, use solution at 120° F., time 180 min",28.25%
same,Relative Lipase Enzyme Activity,"lipase; phosphonate 0.3 wt-%, use solution at 120° F., time 210 min",26.56%
same,Relative Lipase Enzyme Activity,"lipase; phosphonate 0.3 wt-%, use solution at 120° F., time 240 min",24.03%
same,Relative Lipase Enzyme Activity,"lipase; phosphonate 0.6 wt-%, use solution at 120º F., time 0 min",100.00%
same,Relative Lipase Enzyme Activity,"lipase; phosphonate 0.6 wt-%, use solution at 120º F., time 5 min",86.04%
same,Relative Lipase Enzyme Activity,"lipase; phosphonate 0.6 wt-%, use solution at 120º F., time 10 min",83.42%
same,Relative Lipase Enzyme Activity,"lipase; phosphonate 0.6 wt-%, use solution at 120º F., time 20 min",73.22%
same,Relative Lipase Enzyme Activity,"lipase; phosphonate 0.6 wt-%, use solution at 120º F., time 40 min",64.86%
same,Relative Lipase Enzyme Activity,"lipase; phosphonate 0.6 wt-%, use solution at 120º F., time 60 min",59.26%
same,Relative Lipase Enzyme Activity,"lipase; phosphonate 0.6 wt-%, use solution at 120º F., time 90 min",47.33%
same,Relative Lipase Enzyme Activity,"lipase; phosphonate 0.6 wt-%, use solution at 120º F., time 120 min",42.05%
same,Relative Lipase Enzyme Activity,"lipase; phosphonate 0.6 wt-%, use solution at 120º F., time 150 min",38.58%
same,Relative Lipase Enzyme Activity,"lipase; phosphonate 0.6 wt-%, use solution at 120º F., time 180 min",29.04%
same,Relative Lipase Enzyme Activity,"lipase; phosphonate 0.6 wt-%, use solution at 120º F., time 210 min",31.37%
same,Relative Lipase Enzyme Activity,"lipase; phosphonate 0.6 wt-%, use solution at 120º F., time 240 min",29.77%
same,Relative Lipase Enzyme Activity,"lipase; phosphonate at 0.1% elemental phosphorus, at 120º F. or at room temperature (as titled), time 0 min",100.00%
same,Relative Lipase Enzyme Activity,"lipase; phosphonate at 0.1% elemental phosphorus, at 120º F. or at room temperature (as titled), time 5 min",91.09%
same,Relative Lipase Enzyme Activity,"lipase; phosphonate at 0.1% elemental phosphorus, at 120º F. or at room temperature (as titled), time 10 min",83.66%
same,Relative Lipase Enzyme Activity,"lipase; phosphonate at 0.1% elemental phosphorus, at 120º F. or at room temperature (as titled), time 20 min",75.51%
same,Relative Lipase Enzyme Activity,"lipase; phosphonate at 0.1% elemental phosphorus, at 120º F. or at room temperature (as titled), time 40 min",58.49%
same,Relative Lipase Enzyme Activity,"lipase; phosphonate at 0.1% elemental phosphorus, at 120º F. or at room temperature (as titled), time 60 min",54.87%
same,Relative Lipase Enzyme Activity,"lipase; phosphonate at 0.1% elemental phosphorus, at 120º F. or at room temperature (as titled), time 90 min",48.29%
same,Relative Lipase Enzyme Activity,"lipase; phosphonate at 0.1% elemental phosphorus, at 120º F. or at room temperature (as titled), time 120 min",42.46%
same,Relative Lipase Enzyme Activity,"lipase; phosphonate at 0.1% elemental phosphorus, at 120º F. or at room temperature (as titled), time 150 min",38.07%
same,Relative Lipase Enzyme Activity,"lipase; phosphonate at 0.1% elemental phosphorus, at 120º F. or at room temperature (as titled), time 180 min",33.57%
same,Relative Lipase Enzyme Activity,"lipase; phosphonate at 0.1% elemental phosphorus, at 120º F. or at room temperature (as titled), time 210 min",31.15%
same,Relative Lipase Enzyme Activity,"lipase; phosphonate at 0.1% elemental phosphorus, at 120º F. or at room temperature (as titled), time 240 min",31.01%
same,Stability (effects on enzyme activity),[1],Yes
